Key:
Genome polyprotein = Genome polyprotein (Coxsackievirus B3 (strain Nancy), UniProt P03313); experiment: Enzyme Inhibition Assay; settings: pH 6.5; 25 °C
Procedure: (§1) Peptidomimetic inhibitors against CVB3 3Cpro and SARS-CoV 3CLpro. The inhibition constant of SARS 3CLpro was analyzed with reverse-phase HPLC using a C-18 column.

[1] = molecular target: Replicase polyprotein 1ab (Severe acute respiratory syndrome coronavirus, UniProt P0C6X7); experiment: Enzyme Inhibition Assay; settings: pH 6.5; 25 °C
Procedure: as §1

Sequence of Genome polyprotein (P03313 1541-1723 limits assumed): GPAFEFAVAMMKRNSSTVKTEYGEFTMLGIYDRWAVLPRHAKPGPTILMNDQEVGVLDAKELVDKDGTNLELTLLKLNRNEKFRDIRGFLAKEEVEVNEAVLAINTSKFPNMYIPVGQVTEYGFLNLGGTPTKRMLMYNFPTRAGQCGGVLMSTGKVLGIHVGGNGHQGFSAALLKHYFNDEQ

Row | Compound | Ki (Genome polyprotein) [µM] | Ki [1] [µM]
1 | CC(=O)CC=C(C[C@@H]1CCNC1=O)NC(=O)[C@H](CC(C)C)NC(=O)[C@H](CNC(=O)C(C)(C)C)NC(=O)OCc1ccccc1 [TG-0204998] | 0.8 | 
2 | CC(C)C[C@H](NC(=O)[C@@H](NC(=O)OCc1ccccc1)C(C)OC(C)(C)C)C(=O)NC(=CCC(=O)C1CC1)C[C@@H]1CCNC1=O (stereo partly specified) [TG-0205486] | 0.4 | 
3 | C[C@H](OC(C)(C)C)[C@H](NC(=O)OCc1ccccc1)C(=O)N[C@@H](CC1CCCCC1)C(=O)N[C@H](C=O)C[C@@H]1CCNC1=O [benzyl N-[(1S,2S)-2-(tert-butoxy)-1-{[(1S)-2-cyclohexyl-1-{[(2S)-1-oxo-3-[(3S)-2-oxopyrrolidin-3-yl]propan-2-yl]carbamoyl}ethyl]carbamoyl}propyl]carbamate] | 2.5 | 0.054
4 | CCOC(=O)/C=C/[C@H](C[C@@H]1CCNC1=O)NC(=O)[C@H](CC(C)C)NC(=O)[C@@H](NC(=O)OCc1ccccc1)C(C)OC(C)(C)C (stereo partly drawn) [ethyl (2E,4S)-4-[(2S)-2-[(2S,3S)-2-{[(benzyloxy)carbonyl]amino}-3-(tert-butoxy)butanamido]-4-methylpentanamido]-5-[(3S)-2-oxopyrrolidin-3-yl]pent-2-enoate] | 1.5 | 0.058
